Laboratory results taken from US8242274B2, “Triazolopyridine kinase inhibitors useful for the treatment of degenerative and inflammatory diseases” (Galapagos NV, priority 2008, dated 2012).

Assays:
[1] = Microsomal stability, human; type: in vitro ADME; conditions: human liver microsomes, 3 μM compound, 37° C.
Experimental: (§1) A 10 mM stock solution of compound in DMSO was diluted 1000 fold in a 182 mM phosphate buffer pH 7.4 in a 96 deep well plate (Greiner, Cat no. 780285) and pre-incubated at 37° C.
(§2) 40 μL of deionised water was added to a well of a polypropylene Matrix 2D barcode labelled storage tube (Thermo Scientific) and pre-incubated at 37° C.
(§3) A Glucose-6-phosphate-dehydrogenase (G6PDH) working stock solution was prepared in 182 mM phosphate buffer pH7.4 and placed on ice before use. A co-factor containing MgCl2, glucose-6-phosphate and NADP+ was prepared in deionised water and placed on ice before use.
(§4) A final working solution containing liver microsomes (Xenotech) of a species of interest (human, mouse, rat, dog), previously described G6PDH and co-factors was prepared and this mix was incubated for no longer than 20 minutes at room temperature.
(§5) 30 μL of the pre-heated compound dilution was added to 40 μL of pre-heated water in the Matrix tubes and 30 μL of the microsomal mix was added. Final reaction concentrations were 3 μM compound, 1 mg microsomes, 0.4 U/mL GDPDH, 3.3 mM MgCl2, 3.3 mM glucose-6-phosphate and 1.3 mM NADP+.
(§6) To measure percentage remaining of compound at time zero MeOH or ACN was added (1:1) to the well before adding the microsomal mix. The plates were sealed with Matrix Sepra Seals™ (Matrix, Cat. No. 4464) and shaken for a few seconds ensure complete mixing of all components.
(§7) The samples which were not stopped are incubated at 37° C., 300 rpm and after 1 hour of incubation the reaction was stopped with MeOH or ACN (1:1).
(§8) After stopping the reaction the samples were mixed and placed on ice for 30 min to precipitate the proteins. The plates were then centrifuged 30 min at 1200 rcf at 4° C. and the supernatant was transferred to a 96 v-bottom PP plate (Greiner, 651201) for analysis on LCMS.
(§9) These plates were sealed with sealing mats (MA96RD-04S) of www.kinesis.co.uk and samples were measured at room temperature on LCMS (ZQ 1525 from Waters) under optimized conditions using Quanoptimize to determine the appropriate mass of the parent molecule.
(§10) The samples were analyzed on LCMS with a flow rate of 1 mL/min. Solvent A was 15 mM ammonia and solvent B was methanol or acetonitrile, depending on the stop solution used. The samples were run under positive ion spray on an XBridge C18 […] (2.1×30 mm) column, from Waters.
(§11) Peak area from the parent compound at time 0 was considered to be 100% remaining. The percentage remaining after 1 hour incubation was calculated from time 0 and was calculated as the percentage remaining. The solubility of the compound in the final test concentration in buffer is inspected by microscope and results are reported.
(§12) The data on microsomal stability are expressed as a percentage of the total amount of compound remaining after 60 minutes.

[2] = Caco2 permeability, bi-directional; type: in vitro ADME; conditions: human, Caco-2; 10 μM, 1 hour, pH 7.4
Experimental: Bi-directional Caco-2 assays were performed as described below. Caco-2 cells were obtained from European Collection of Cell Cultures (ECACC, cat 86010202) and used after a 21 day cell culture in 24-well Transwell plates (Fisher TKT-545-020B).
2×10^5 cells/well were seeded in plating medium consisting of DMEM+GlutaMAXI+1% NEAA+10% FBS (FetalClone II)+1% Pen/Strep. The medium was changed every 2-3 days.
Test and reference compounds (propranolol and rhodamine 123 or vinblastine, all purchased from Sigma) were prepared in Hanks' Balanced Salt Solution containing 25 mM HEPES (pH 7.4) and added to either the apical (125 μL) or basolateral (600 μL) chambers of the Transwell plate assembly at a concentration of 10 μM with a final DMSO concentration of 0.25%.
50 μM Lucifer Yellow (Sigma) was added to the donor buffer in all wells to assess integrity of the cell layers by monitoring Lucifer Yellow permeation. As Lucifer Yellow (LY) cannot freely permeate lipophilic barriers, a high degree of LY transport indicates poor integrity of the cell layer.
After a 1 hour incubation at 37° C. while shaking at an orbital shaker at 150 rpm, 70 μL aliquots were taken from both apical (A) and basal (B) chambers and added to 100 μLl 50:50 acetonitrile:water solution containing analytical internal standard (0.5 μM carbamazepine) in a 96 well plate.
Lucifer yellow was measured with a Spectramax Gemini XS (Ex 426 nm and Em 538 nm) in a clean 96 well plate containing 150 μL of liquid from basolateral and apical side.
Concentrations of compound in the samples were measured by high performance liquid-chromatography/mass spectroscopy (LC-MS/MS).
The Efflux ratios, as an indication of active efflux from the apical cell surface, were calculated using the ratio of PappB>A/PappA>B.

[3] = biological target: T1, Recombinant human JAK1 catalytic domain (Homo sapiens, UniProt P23458); test: JAK1 inhibition assay; type: biochemical; conditions: semi-quantitative score
T1 construct: Recombinant human JAK1 catalytic domain (amino acids 850-1154; catalog number 08-144); purchased Carna Biosciences 08-144
T1 sequence (P23458 850-1154): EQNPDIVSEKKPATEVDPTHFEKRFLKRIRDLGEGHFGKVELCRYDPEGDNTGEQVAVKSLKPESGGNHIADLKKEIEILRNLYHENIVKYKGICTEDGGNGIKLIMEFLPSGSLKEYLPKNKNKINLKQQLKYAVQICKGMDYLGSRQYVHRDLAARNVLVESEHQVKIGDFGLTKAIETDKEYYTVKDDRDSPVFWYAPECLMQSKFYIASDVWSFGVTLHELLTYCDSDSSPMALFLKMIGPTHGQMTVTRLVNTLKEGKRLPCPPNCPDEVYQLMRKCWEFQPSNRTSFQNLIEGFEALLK
Experimental: Recombinant human JAK1 catalytic domain (amino acids 850-1154; catalog number 08-144) was purchased from Carna Biosciences. 10 ng of JAK1 was incubated with 12.5 μg polyGT substrate (Sigma catalog number P0275) in kinase reaction buffer (15 mM Tris-HCl pH 7.5, 1 mM DTT, 0.01% Tween-20, 10 mM MgCl2, 2 μM non-radioactive ATP, 0.25 μCi 33P-gamma-ATP (GE Healthcare, catalog number AH9968) final concentrations) with or without 5 μL containing test compound or vehicle (DMSO, 1% final concentration), in a total volume of 25 μL, in a polypropylene 96-well plate (Greiner, V-bottom). After 45 min at 30° C., reactions were stopped by adding of 25 μL/well of 150 mM phosphoric acid. All of the terminated kinase reaction was transferred to prewashed (75 mM phosphoric acid) 96 well filter plates (Perkin Elmer catalog number 6005177) using a cell harvester (Perkin Elmer). Plates were washed 6 times with 300 μL per well of a 75 mM phosphoric acid solution and the bottom of the plates was sealed. 40 μL/well of Microscint-20 was added, the top of the plates was sealed and readout was performed using the Topcount (Perkin Elmer). Kinase activity was calculated by subtracting counts per minute (cpm) obtained in the presence of a positive control inhibitor (10 μM staurosporine) from cpm obtained in the presence of vehicle. The ability of a test compound to inhibit this activity was determined as: Percentage inhibition=((cpm determined for sample with test compound present−cpm determined for sample with positive control inhibitor)divided by(cpm determined in the presence of vehicle−cpm determined for sample with positive control inhibitor))*100%.
(§13) Dose dilution series were prepared for the compounds enabling the testing of dose-response effects in the JAK1 assay and the calculation of the IC50 for each compound. Each compound was routinely tested at concentration of 20 μM followed by a 1/3 serial dilution, 8 points (20 μM-6.67 μM-2.22 μM-740 nM-247 nM-82 nM-27 nM-9 nM) in a final concentration of 1% DMSO.

[4] = Microsomal stability, rat; type: in vitro ADME; conditions: rat liver microsomes, 3 μM compound, 37° C.
Experimental: as §1, §2, §3, §4, §5, §6, §7, §8, §9, §10, §11, §12

[5] = biological target: T2, Recombinant human JAK2 catalytic domain (Homo sapiens, UniProt O60674); test: JAK2 inhibition assay; type: biochemical; conditions: semi-quantitative score
T2 construct: Recombinant human JAK2 catalytic domain (amino acids 808-1132; catalog number PV4210); purchased Invitrogen PV4210
T2 sequence (O60674 808-1132): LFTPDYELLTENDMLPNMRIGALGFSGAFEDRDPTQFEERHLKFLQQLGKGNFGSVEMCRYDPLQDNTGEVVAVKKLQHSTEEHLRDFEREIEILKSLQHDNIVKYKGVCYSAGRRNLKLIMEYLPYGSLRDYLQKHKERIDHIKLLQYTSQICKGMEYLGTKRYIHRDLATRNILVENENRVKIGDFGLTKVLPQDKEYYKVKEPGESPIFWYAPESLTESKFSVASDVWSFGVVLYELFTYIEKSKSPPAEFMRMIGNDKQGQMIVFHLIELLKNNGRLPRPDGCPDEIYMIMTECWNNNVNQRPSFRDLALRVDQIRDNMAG
Experimental: Recombinant human JAK2 catalytic domain (amino acids 808-1132; catalog number PV4210) was purchased from Invitrogen. 0.025 mU of JAK2 was incubated with 2.5 μg polyGT substrate (Sigma catalog number P0275) in kinase reaction buffer (5 mM MOPS pH 7.5, 9 mM MgAc, 0.3 mM EDTA, 0.06% Brij and 0.6 mM DTT, 1 μM non-radioactive ATP, 0.25 μCi 33P-gamma-ATP (GE Healthcare, catalog number AH9968) final concentrations) with or without 5 μL containing test compound or vehicle (DMSO, 1% final concentration), in a total volume of 25 μL, in a polypropylene 96-well plate (Greiner, V-bottom). After 90 min at 30° C., reactions were stopped by adding of 25 μL/well of 150 mM phosphoric acid. All of the terminated kinase reaction was transferred to prewashed (75 mM phosphoric acid) 96 well filter plates (Perkin Elmer catalog number 6005177) using a cell harvester (Perkin Elmer). Plates were washed 6 times with 300 μL per well of a 75 mM phosphoric acid solution and the bottom of the plates was sealed. 40 μL/well of Microscint-20 was added, the top of the plates was sealed and readout was performed using the Topcount (Perkin Elmer). Kinase activity was calculated by subtracting counts per minute (cpm) obtained in the presence of a positive control inhibitor (10 μM staurosporine) from cpm obtained in the presence of vehicle. The ability of a test compound to inhibit this activity was determined as: Percentage inhibition=((cpm determined for sample with test compound present−cpm determined for sample with positive control inhibitor) divided by (cpm determined in the presence of vehicle−cpm determined for sample with positive control inhibitor))*100%.
as §13, with “JAK2” for “JAK1”

TNF release = test: Septic shock model (LPS); type: in vivo, mice; conditions: 3 mg/kg
Experimental: Injection of lipopolysaccharide (LPS) induces a rapid release of soluble tumour necrosis factor (TNF-alpha) into the periphery. This model is used to analyse prospective blockers of TNF release in vivo.
Six BALB/cJ female mice (20 g) per group were treated at the intended dosing once, po. Thirty minutes later, LPS (15 μg/kg; E. Coli serotype 0111:B4) was injected ip. Ninety minutes later, mice were euthanized and blood was collected. Circulating TNF alpha levels were determined using commercially available ELISA kits. Dexamethasone (5 μg/kg) was used as a reference anti-inflammatory compound. Selected compounds are tested at one or multiple doses, e.g. 3 and/or 10 and/or 30 mg/kg, po.

MMP13 = test: OSM/IL-1β signaling assay (SW1353 cells); type: cell-based; conditions: Homo sapiens, 25 ng/mL OSM and 1 ng/mL IL-1β, 48 hours
Experimental: The cells were seeded in 96 well plates at 15,000 cells/well in a volume of 120 μL DMEM (Invitrogen) containing 10% (v/v) FBS and 1% penicillin/streptomycin (InVitrogen) incubated at 37° C. 5% CO2. Cells were preincubated with 15 μL compound in M199 medium with 2% DMSO 1 hr before triggering with 15 μL OSM and IL-1β to reach 25 ng/mL OSM and 1 ng/mL IL-1β, and MMP13 levels were measured in conditioned medium 48 hours after triggering. MMP13 activity was measured using an antibody capture activity assay. For this purpose, 384 well plates (NUNC, 460518, MaxiSorb black) were coated with 35 μL of a 1.5 μg/mL anti-human MMP13 antibody (R&D Systems, MAB511) solution for 24 hours at 4° C. After washing the wells 2 times with PBS+0.05% Tween, the remaining binding sites were blocked with 100 μL 5% non-fat dry milk (Santa Cruz, sc-2325, Blotto) in PBS for 24 hours at 4° C. […] Next the wells were washed twice with PBS+0.05% Tween followed by MMP13 activation by addition of 35 μL of a 1.5 mM 4-Aminophenylmercuric acetate (APMA) (Sigma, A9563) solution and incubation at 37° C. for 1 hour. […] After incubation for 24 hours at 37° C. fluorescence of the converted substrate was measured in a Perkin Elmer Wallac EnVision 2102 Multilabel Reader (wavelength excitation: 320 nm, wavelength emission: 405 nm).

| Compound | Microsomal stability Human (%), compound remaining after 60 minutes [1] [%] | Papp A→B at 1 h, 10 μM [2] [×10⁻⁶ cm/s] | IC50 [3] [nM] | Microsomal stability Rat (%), compound remaining after 60 minutes [4] [%] | IC50 [5] [nM] | EC50 (MMP13) [nM] | activity in the septic shock model (TNF release) |
| --- | --- | --- | --- | --- | --- | --- | --- |
| COC(=O)c1ccc(COc2ccc(-c3cccc4nc(NC(=O)C5CC5)nn34)cc2)nc1 [Compound 190] | 2.13 |  | 0.1 to 100 | 25.64 |  |  |  |
| O=C(Nc1nc2cccc(-c3cccc(OCc4ccccc4)c3)n2n1)C1CC1 [Compound 14, N-(5-(3-(benzyloxy)phenyl)-[1,2,4]triazolo[1,5-a]pyridin-2-yl)cyclopropanecarboxamide] |  |  |  |  | > 501 |  |  |
| O=C(Nc1nc2cccc(-c3ccc(OCc4ccc(N5CCCC5)nc4)cc3)n2n1)C1CC1 [Compound 174, N-(5-(4-((6-(pyrrolidin-1-yl)pyridin-3-yl)methoxy)phenyl)-[1,2,4]triazolo[1,5-a]pyridin-2-yl)cyclopropanecarboxamide] |  |  | > 501 |  |  |  |  |
| Cc1ccc(COc2ccc(-c3cccc4nc(NC(=O)C5CC5)nn34)cc2)cn1 [Compound 197, Cyclopropanecarboxylic acid {5-[4-(6-methyl-pyridin-3-ylmethoxy)-phenyl]-[1,2,4]triazolo[1,5-a]pyridin-2-yl}-amide] | 46.6 |  | 0.1 to 100 | 59.41 | 1 to 100 |  | active |
| O=C(Nc1nc2cccc(-c3ccc(NCc4cccnc4)cc3)n2n1)C1CC1 [Compound 182, N-(5-(4-(pyridin-3-ylmethylamino)phenyl)-[1,2,4]triazolo[1,5-a]pyridin-2-yl)cyclopropanecarboxamide] | 19.33 |  | 0.1 to 100 | 19.23 |  |  |  |
| NC(=O)c1ccc(COc2ccc(-c3cccc4nc(NC(=O)C5CC5)nn34)cc2)cn1 [Compound 192, 5-{4-[2-(Cyclopropanecarbonyl-amino)-[1,2,4]triazolo[1,5-a]pyridin-5-yl]-phenoxymethyl}-pyridine-2-carboxylic acid amide] | 127.2 | 12.5 | 0.1 to 100 | 77.62 |  | > 1000 |  |

Continued, in another order:

| Microsomal stability Human (%), compound remaining after 60 minutes [1] [%] | Papp A→B at 1 h, 10 μM [2] [×10⁻⁶ cm/s] | IC50 [3] [nM] | Microsomal stability Rat (%), compound remaining after 60 minutes [4] [%] | IC50 [5] [nM] | EC50 (MMP13) [nM] | Compound | activity in the septic shock model (TNF release) |
| --- | --- | --- | --- | --- | --- | --- | --- |
| 53.64 | 13.4 | 0.1 to 100 | 39.78 |  |  | CC(=O)Nc1nc2cccc(-c3ccc(OCc4ccccc4)cc3)n2n1 [Compound 163, N-(5-(4-(benzyloxy)phenyl)-[1,2,4]triazolo[1,5-a]pyridin-2-yl)acetamide] |  |
| 65.8 |  | 0.1 to 100 | 72.45 | 1 to 100 |  | O=C(Nc1nc2cccc(-c3ccc(OCc4ccc(Cl)nc4)cc3)n2n1)C1CC1 [Compound 198, Cyclopropanecarboxylic acid {5-[4-(6-chloro-pyridin-3-ylmethoxy)-phenyl]-[1,2,4]triazolo[1,5-a]pyridin-2-yl}-amide] |  |
| 43 | 25.8 | 0.1 to 100 | 14 |  |  | O=C(Nc1nc2cccc(-c3ccc(OCc4ccccc4)c(F)c3)n2n1)C1CC1 [Compound 15, N-(5-(4-(benzyloxy)-3-fluorophenyl)-[1,2,4]triazolo[1,5-a]pyridin-2-yl)cyclopropanecarboxamide] |  |
